According to patent US9540389B2, “Antimicrobial potentiators” (priority 2013, dated 2017):

Key:
Assay type in all cases: cell-based
[1] = tested on: Escherichia coli 285 (AB1157, CIPR, overexpresses efflux); experiment: microbe, parasite or virus in culture
Text: (§1) • Strains and Reagents. The following strains were obtained from the Keio collection (Baba, et al.: Construction of Escherichia coli K-12 in-frame, single-gene knockout mutants: the Keio collection. In Mol Syst Biol, vol. 2, pp. 2006 0008, (2006)): JW0451 (ΔacrB::kan), JW5503 (ΔtolC::kan), JW3234 (ΔacrF::kan), JW2661 (ΔemrB::kan), JW0863 (ΔmacB::kan). The deletion mutations in each of these strains were transferred to AB1157 using P1 phage transduction (see Table 1). The construction of the E. coli cell-based reporter strain (SOS-XXX) that was used for high throughput screening is described in detail in the supplementary information. […] Irgasan was a generous gift from Ciba Speciality Chemicals, Inc. (High Point, N.C.). Hoechst 33342 (H33342) was purchased from Molecular Probes (Eugene, Oreg.). […] Luria Broth (Miller) and agar were purchased as prepared dehydrated media from Becton Dickenson (Franklin Lakes, N.J.). The compound libraries used in high-throughput screens were purchased from Chembridge (San Diego, Calif.), ChemDiv (San Diego, Calif.), and TimTec (Newark, Del.). MBX2319 was synthesized by Microbiotix, Inc. • Antibacterial Activity Assays. The minimal inhibitory concentration (MIC) of antibacterial agents and biocides were determined using the microbroth dilution method essentially as described in the CLSI protocol M7-A7 (CLSI: Method for dilution antimicrobial susceptibility testing for bacteria that grow aerobically; Approved standard-document M7-A7. In Clinical and Laboratory Standards Institute document M7-A7, Clinical and Laboratory Standards Institute, Wayne, Pa., (2006)), with the following exceptions. LB media was used instead of MHB. […] The final concentration of DMSO in each assay was 2%. […] MIC assays were performed in triplicate and the geometric mean was calculated. Checkerboard MIC assays using an EPI and an antibacterial agent were performed essentially as described (Pillai, et al.: Antimicrobial Combinations. In Antibiotics in Laboratory Medicine, ed. by V. Lorian, pp. 365-440, Lippincott Williams & Wilkins, Philadelphia, Pa., (2005)), with the same modifications used for the MIC assays described above. • Time-Kill Assays. Killing curve assays were performed essentially as described (Pillai, et al.: Antimicrobial Combinations. In Antibiotics in Laboratory Medicine, ed. by V. Lorian, pp. 365-440, Lippincott Williams & Wilkins, Philadelphia, Pa., (2005)). Exponential bacterial cultures grown in LB were diluted to a cell density of ˜1×10^7 in LB followed by addition of CIP and/or an EPI. Viability was monitored over 2-4 hours by making serial dilutions in saline and spotting 5 μl of each dilution onto the surface of an LB agar plate in triplicate. Colonies were counted after the plates were incubated at 37° C. for 16-18 hr, colony forming units (CFU) per ml were calculated, and the average and standard deviation for the three replicates was determined. For treatments that decreased CFU/ml below the limit of detection for the spot plating method, the 100 μl samples were diluted into 5 ml LB top agar, were poured onto LB agar plates, and incubated for 18 hr at 37° C. To calculate the fraction of the control for each sample, the average CFU/ml values for treated samples were divided by those from the same sample at 0 h (time=0). Each experiment was repeated at least three times, and a representative experiment is shown. • H33342 Accumulation Assay. The rate of accumulation of the fluorescent dye Hoechst 33342 (H33342), which is a substrate of a wide variety of bacterial efflux pumps (van den Berg van Saparoea, et al., Biochemistry, vol. 44, pp. 16931-16938, (2005)), can be used to estimate the activity of the major efflux pumps in E. coli and many other bacterial species. The H33342 accumulation assay was used to evaluate the effect of EPIs on the activity of the AcrAB-TolC efflux pump in several bacterial species essentially as described (Coldham, et al., J Antimicrob Chemother, vol. 65, pp. 1655-1663, (2010)). […]

[2] = tested on: Escherichia coli 287 (AB1157, CIPR, overexpresses efflux); experiment: microbe, parasite or virus in culture
Text: as §1

[3] = tested on: Escherichia coli 331; experiment: MIC assay (microbroth dilution) ± 25 μM EPI; conditions: E. coli 331
Text: as §1

[4] = tested on: Escherichia coli ATCC 25922; experiment: MIC assay (microbroth dilution) ± 25 μM EPI
Text: as §1

[5] = tested on: Escherichia coli AB1157; experiment: MIC assay (microbroth dilution) ± 25 μM EPI; conditions: Escherichia coli, AB1157, read-out: MICs (μg/ml) ± EPIs: None
Text: as §1

[6] = tested on: Escherichia coli AB1157 (WT); experiment: Checkerboard MIC assay (antibacterial agent + MBX2319); conditions: WT
Text: as §1

[7] = tested on: Escherichia coli AB1157 ΔacrF; experiment: as above
Text: as §1

[8] = tested on: Escherichia coli AB1157 ΔtolC; experiment: as above
Text: as §1

[9] = tested on: Escherichia coli AB1157 ΔacrB; experiment: as above
Text: as §1

[10] = Escherichia coli, read-out: MIC (μg/ml) with MBX2319 at concn (μM) of: 0

## CCN1CCN(C(=O)N[C@@H](C(=O)N[C@@H]2C(=O)N3[C@@H]2SC(C)(C)[C@@H]3C(=O)O)c2ccccc2)C(=O)C1=O [Piperacillin, piperacillin]
[1]; 285, MBX2319 1.56 μM
  MIC (μg/ml) with MBX2319 at concn (μM) of: 1.56: 4 µg/mL
[1]; 285, MBX2319 3.13 μM
  MIC (μg/ml) with MBX2319 at concn (μM) of: 3.13: 2 µg/mL
[1]; 285, MBX2319 6.25 μM
  MIC (μg/ml) with MBX2319 at concn (μM) of: 6.25: 2 µg/mL
[1]; 285, MBX2319 25 μM
  MIC (μg/ml) with MBX2319 at concn (μM) of: 25: 2 µg/mL
[1]; 285, MBX2319 50 μM
  MIC (μg/ml) with MBX2319 at concn (μM) of: 50: 2 µg/mL
[1]; 285, MBX2319 […]
  MIC (μg/ml) with MBX2319 at concn (μM) of: 12.5: 2 µg/mL
[1]; 285, MIC (WT)/MIC (mutant) in the absence of EPI
  MIC ratios mutant: 0.5
[1]; 285, highest ratio of MIC (no compound)/MIC (MBX2319)
  MIC ratios 2319: 4
[1]; [10]
  MIC: 8 µg/mL
[2]; 287, MBX2319 1.56 μM
  MIC (μg/ml) with MBX2319 at concn (μM) of: 1.56: 8 µg/mL
[2]; 287, MBX2319 3.13 μM
  MIC (μg/ml) with MBX2319 at concn (μM) of: 3.13: 4 µg/mL
[2]; 287, MBX2319 6.25 μM
  MIC (μg/ml) with MBX2319 at concn (μM) of: 6.25: 4 µg/mL
[2]; 287, MBX2319 25 μM
  MIC (μg/ml) with MBX2319 at concn (μM) of: 25: 2 µg/mL
[2]; 287, MBX2319 50 μM
  MIC (μg/ml) with MBX2319 at concn (μM) of: 50: 2 µg/mL
[2]; 287, MBX2319 […]
  MIC (μg/ml) with MBX2319 at concn (μM) of: 12.5: 2 µg/mL
[2]; 287, MIC (WT)/MIC (mutant) in the absence of EPI
  MIC ratios mutant: 0.25
[2]; 287, highest ratio of MIC (no compound)/MIC (MBX2319)
  MIC ratios 2319: 8
[2]; [10]
  MIC: 16 µg/mL
[3]; + 25 μM MBX2319
  MIC (μg/ml) ± EPI: MBX2319: 0.707 µg/mL
[3]; + 25 μM PAβN
  MIC (μg/ml) ± EPI: PAβN: 4 µg/mL
[3]; MIC no cmpd/MIC + 25 μM MBX2319
  MIC Ratio MBX2319: 5.6
[3]; MIC no cmpd/MIC + 25 μM PAβN
  MIC Ratio PAβN: 1
[3]; Escherichia coli, no EPI, read-out: MIC (μg/ml) ± EPI: None
  MIC: 4 µg/mL
[4]; E. coli ATCC 25922, + 25 μM MBX2319
  MIC (μg/ml) ± EPI: MBX2319: 1.68 µg/mL
[4]; E. coli ATCC 25922, + 25 μM PAβN
  MIC (μg/ml) ± EPI: PAβN: 4 µg/mL
[4]; E. coli ATCC 25922, MIC no cmpd/MIC + 25 μM MBX2319
  MIC Ratio MBX2319: 1.7
[4]; E. coli ATCC 25922, MIC no cmpd/MIC + 25 μM PAβN
  MIC Ratio PAβN: 0.7
[4]; Escherichia coli, ATCC25922, read-out: MIC (μg/ml) ± EPI: None
  MIC: 2.83 µg/mL
[5]
  MIC: 4 µg/mL
[6]; Escherichia coli, MBX2319 0 μM, read-out: MIC (μg/ml) with MBX2319 at concn (μM) of: 0
  MIC: 4 µg/mL
[6]; MBX2319 1.56 μM
  MIC (μg/ml) with MBX2319 at concn (μM) of: 1.56: 2 µg/mL
[6]; MBX2319 3.13 μM
  MIC (μg/ml) with MBX2319 at concn (μM) of: 3.13: 1 µg/mL
[6]; MBX2319 6.25 μM
  MIC (μg/ml) with MBX2319 at concn (μM) of: 6.25: 1 µg/mL
[6]; MBX2319 25 μM
  MIC (μg/ml) with MBX2319 at concn (μM) of: 25: 0.5 µg/mL
[6]; MBX2319 50 μM
  MIC (μg/ml) with MBX2319 at concn (μM) of: 50: 0.5 µg/mL
[6]; MBX2319 […]
  MIC (μg/ml) with MBX2319 at concn (μM) of: 12.5: 0.5 µg/mL
[6]; MIC (WT)/MIC (mutant) in the absence of EPI
  MIC ratios mutant: 1
[6]; highest ratio of MIC (no compound)/MIC (MBX2319)
  MIC ratios 2319: 8
[7]; [10]
  MIC: 4 µg/mL
[7]; ΔacrF, MBX2319 1.56 μM
  MIC (μg/ml) with MBX2319 at concn (μM) of: 1.56: 2 µg/mL
[7]; ΔacrF, MBX2319 3.13 μM
  MIC (μg/ml) with MBX2319 at concn (μM) of: 3.13: 1 µg/mL
[7]; ΔacrF, MBX2319 6.25 μM
  MIC (μg/ml) with MBX2319 at concn (μM) of: 6.25: 0.5 µg/mL
[7]; ΔacrF, MBX2319 25 μM
  MIC (μg/ml) with MBX2319 at concn (μM) of: 25: 0.5 µg/mL
[7]; ΔacrF, MBX2319 50 μM
  MIC (μg/ml) with MBX2319 at concn (μM) of: 50: 0.5 µg/mL
[7]; ΔacrF, MBX2319 […]
  MIC (μg/ml) with MBX2319 at concn (μM) of: 12.5: 0.5 µg/mL
[7]; ΔacrF, MIC (WT)/MIC (mutant) in the absence of EPI
  MIC ratios mutant: 1
[7]; ΔacrF, highest ratio of MIC (no compound)/MIC (MBX2319)
  MIC ratios 2319: 8
[8]; [10]
  MIC: 0.125 µg/mL
[8]; ΔtolC, MBX2319 1.56 μM
  MIC (μg/ml) with MBX2319 at concn (μM) of: 1.56: 0.125 µg/mL
[8]; ΔtolC, MBX2319 3.13 μM
  MIC (μg/ml) with MBX2319 at concn (μM) of: 3.13: 0.125 µg/mL
[8]; ΔtolC, MBX2319 6.25 μM
  MIC (μg/ml) with MBX2319 at concn (μM) of: 6.25: 0.125 µg/mL
[8]; ΔtolC, MBX2319 25 μM
  MIC (μg/ml) with MBX2319 at concn (μM) of: 25: 0.125 µg/mL
[8]; ΔtolC, MBX2319 50 μM
  MIC (μg/ml) with MBX2319 at concn (μM) of: 50: 0.125 µg/mL
[8]; ΔtolC, MBX2319 […]
  MIC (μg/ml) with MBX2319 at concn (μM) of: 12.5: 0.125 µg/mL
[8]; ΔtolC, MIC (WT)/MIC (mutant) in the absence of EPI
  MIC ratios mutant: 32
[8]; ΔtolC, highest ratio of MIC (no compound)/MIC (MBX2319)
  MIC ratios 2319: 1
[9]; [10]
  MIC: 0.25 µg/mL
[9]; ΔacrB, MBX2319 1.56 μM
  MIC (μg/ml) with MBX2319 at concn (μM) of: 1.56: 0.125 µg/mL
[9]; ΔacrB, MBX2319 3.13 μM
  MIC (μg/ml) with MBX2319 at concn (μM) of: 3.13: 0.125 µg/mL
[9]; ΔacrB, MBX2319 6.25 μM
  MIC (μg/ml) with MBX2319 at concn (μM) of: 6.25: 0.125 µg/mL
[9]; ΔacrB, MBX2319 25 μM
  MIC (μg/ml) with MBX2319 at concn (μM) of: 25: 0.125 µg/mL
[9]; ΔacrB, MBX2319 50 μM
  MIC (μg/ml) with MBX2319 at concn (μM) of: 50: 0.125 µg/mL
[9]; ΔacrB, MBX2319 […]
  MIC (μg/ml) with MBX2319 at concn (μM) of: 12.5: 0.125 µg/mL
[9]; ΔacrB, MIC (WT)/MIC (mutant) in the absence of EPI
  MIC ratios mutant: 16
[9]; ΔacrB, highest ratio of MIC (no compound)/MIC (MBX2319)
  MIC ratios 2319: 2
